Data on 2 compounds can be found in patent US6043212A, “Recombinant C140 receptor, its agonists and antagonists, and nucleic acids encoding the receptor” (COR Therapeutics, Inc., priority 1995, dated 2000).

For assay [1], the target named is T1, mutant C140 receptor 35Arg (serine-35 replaced with arginine) (Mus musculus, UniProt P55086, S39R).
T1 construct: Site-directed mutagenesis was employed to construct mutant receptors in the pSG-5; expressed in transfected cells; host or cells: Xenopus laevis oocytes injected with capped cRNA
T1 sequence (P55086 32-399 S39R limits assumed): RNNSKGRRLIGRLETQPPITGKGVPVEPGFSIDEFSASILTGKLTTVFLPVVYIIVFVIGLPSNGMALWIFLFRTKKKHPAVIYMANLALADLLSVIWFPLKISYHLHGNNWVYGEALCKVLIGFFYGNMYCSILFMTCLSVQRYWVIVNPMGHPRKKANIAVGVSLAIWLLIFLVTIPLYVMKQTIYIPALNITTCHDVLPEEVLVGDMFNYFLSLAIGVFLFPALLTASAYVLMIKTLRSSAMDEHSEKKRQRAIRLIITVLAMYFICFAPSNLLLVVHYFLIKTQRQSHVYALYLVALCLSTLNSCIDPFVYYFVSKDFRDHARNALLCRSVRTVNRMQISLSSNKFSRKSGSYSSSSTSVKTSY
The experiment in a line: 45Ca release by Xenopus oocytes expressing mutant C140 receptor 35Arg. Type of assay: cell-based. Particulars: 35Arg receptor. An excerpt: (§1) Both native and mutant C140 receptors were produced in oocytes and activated with a peptide mimicking the new amino-terminus", or by the proteolytic enzyme trypsin (which cleaves the extracellular region). Native receptors were produced by cloning the coding region of the receptor gene, using the polymerase chain reaction, into the expression vector pSG-5 (Green, S. et al., Nucleic Acid Res (1988) 16:369). The orientation and integrity of the cloned coding region was verified by determining the nucleotide sequence with the Sanger chain-termination method. Site-directed mutagenesis was employed to construct mutant receptors in the pSG-5. […]
(§2) Oocytes from Xenopus laevis were harvested and prepared using published techniques (Coleman, A., in Hames, B. D., and Higgins, S. J., eds, Transcription and Translation: A Practical Approach, IRL Press, pp. 271-302; Williams, J. A., et al. Proc Natl Acad Sci USA (1988) 85:4939-4943]. To remove follicular cells, oocytes were incubated for 1.5 h with shaking in calcium-free Barth's containing 2 mg/ml each of collagenase 1A and hyaluronidase 1S. The oocytes were then washed five times in regular Barth's and incubated at 18° C. in Barth's medium containing 100 U/ml penicillin, 100 μg/ml streptomycin, and 2.5 mM sodium pyruvate. […] The harvested medium was analyzed by scintillation counting. […]

For assay [2], the target named is T2, mutant C140 receptor 35His (serine-35 replaced with histidine) (Mus musculus, UniProt P55086, S39H).
T2 construct: Site-directed mutagenesis was employed to construct mutant receptors in the pSG-5; expressed in transfected cells; host or cells: Xenopus laevis oocytes injected with capped cRNA
T2 sequence (P55086 32-399 S39H limits assumed): T1 sequence (P55086 32-399 S39R limits assumed) with R8H
The experiment in a line: 45Ca release by Xenopus oocytes expressing mutant C140 receptor 35His. The assay is classed as cell-based. The following applies: 35His receptor.
Source text: as §1, §2

A short description of assay [3]: Hypotensive activity: arterial pressure after injection into rat femoral vein. Type of assay: in vivo. Particulars: FIG. 7. As for the experimental part: The C140 agonist SLIGRL (SEQ ID NO: 23) was injected in 0.2 ml buffer at various concentrations into rat femoral vein and the arterial pressure was monitored.
The target in a further assay is T3, C140 receptor (Mus musculus, UniProt P55086).
T3 construct: expressed in transfected cells; host or cells: frog oocytes injected with C140 receptor cRNA
T3 sequence (P55086 26-399): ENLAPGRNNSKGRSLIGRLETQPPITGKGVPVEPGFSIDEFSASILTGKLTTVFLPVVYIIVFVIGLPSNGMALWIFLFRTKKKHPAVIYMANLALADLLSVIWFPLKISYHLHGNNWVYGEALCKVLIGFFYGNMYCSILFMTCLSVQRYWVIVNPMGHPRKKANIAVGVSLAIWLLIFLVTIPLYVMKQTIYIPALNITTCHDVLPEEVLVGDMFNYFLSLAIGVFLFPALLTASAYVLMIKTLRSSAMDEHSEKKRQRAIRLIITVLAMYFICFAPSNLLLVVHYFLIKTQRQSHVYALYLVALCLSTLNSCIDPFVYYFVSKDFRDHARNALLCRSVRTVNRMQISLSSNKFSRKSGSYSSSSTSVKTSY
The experiment in a line: Activation of frog oocytes injected with C140 receptor cRNA by proteases. The following applies: FIG. 9c. Type of assay: cell-based. The text has this:
FIGS. 9a and 9b show the ability of plasmin and kallikrein respectively to activate oocytes injected with C140 cRNA (open circles) or water (crosses) as control.

[4] abbreviates: peptide at 100 μM, same oocytes after trypsin stimulation.
Setting [5] is: trypsin at 300 pM, increase compared to water-injected oocytes.

Numbering of substitutions follows the chain as printed. Peptide text beside a SMILES is read from it.

As to `CC[C@H](C)[C@H](NC(=O)[C@H](CC(C)C)NC(=O)[C@@H](N)CO)C(=O)NCC(=O)N[C@@H](CCCNC(=N)N)C(=O)N[C@@H](CC(C)C)C(=O)O` [SLIGRL] (H-SLIGRL-OH), the “Fold increase in 45Ca” value is on record as 15 fold in assay [1] (setting [4]) and 23 fold in assay [2] (setting [4]). Further, the “Effect on arterial blood pressure” value is on record as “appreciable decrease in blood pressure” in assay [3] (0.2 ml buffer at 0.1 mM into femoral vein) and “larger decreases” in assay [3] (0.2 ml buffer at 1 mM into femoral vein).
Take trypsin: the “Fold increase in 45Ca” value in assay [1] (setting [5]) and in assay [2] (setting [5]) was 0 fold each time. Moreover, the “Activation of oocytes injected with C140 receptor cRNA versus substance K receptor cRNA” value on C140 receptor is “differential effect”.
